Test results published in paper PMC10104807, “Modulation of tau tubulin kinases (TTBK1 and TTBK2) impacts ciliogenesis” (Scientific Reports, 2023).
pIC50: −log10 of the molar value. Where “and” joins values, the source holds several entries; their conditions need not be identical. Identical values can stand only once. Like-named read-outs stand apart in the source and are kept apart here.

Columns and labels:
TTBK2 = molecular target: T1, TTBK2 (Homo sapiens, UniProt Q6IQ55); experiment: Eurofins enzymatic radiometric kinase assay; assay type: biochemical; conditions: for TTBK2 PoC: 1 μM, duplicate, lower = greater inhibition
T1 construct: purchased Eurofins

CIT = molecular target: T2, CIT (Homo sapiens, UniProt O14578); experiment: DiscoverX scanMAX binding assay; conditions: 1 μM
T2 construct: purchased Eurofins (radiometric) / Eurofins DiscoverX scanMAX / Reaction Biology / SignalChem
From the text: (§1) This panel includes 403 wild-type (WT) human kinases but not TTBK1/2. […] Substantial overlap between the MRC and DiscoverX scanMAX kinase panels allows the comparison of results for the same kinases in two different assay formats (enzymatic versus binding, respectively) at the same concentration. Selectivity results are included in two columns within Table 1. […] The rightmost column converts this selectivity score into the number of kinases with a PoC < 10 in the scanMAX panel.
(§2) The Eurofins DiscoverX Corporation scanMAX assay platform was employed to assess the selectivity of specific analogs at a single concentration (1 µM). As described previously, this assay platform profiles a compound against 403 wild-type human kinases and delivers percent of control (PoC) values. These percent of control values are included in Table 1 and corresponding kinome tree diagrams as well as tables for each analog included in Fig. S1.

PIP5K2C = molecular target: T3, PIP5K2C (Homo sapiens, UniProt Q8TBX8); experiment: DiscoverX scanMAX binding assay; conditions: 1 μM
T3 construct: purchased Eurofins (radiometric) / Eurofins DiscoverX scanMAX / Reaction Biology / SignalChem
T3 sequence (Q8TBX8 1-421): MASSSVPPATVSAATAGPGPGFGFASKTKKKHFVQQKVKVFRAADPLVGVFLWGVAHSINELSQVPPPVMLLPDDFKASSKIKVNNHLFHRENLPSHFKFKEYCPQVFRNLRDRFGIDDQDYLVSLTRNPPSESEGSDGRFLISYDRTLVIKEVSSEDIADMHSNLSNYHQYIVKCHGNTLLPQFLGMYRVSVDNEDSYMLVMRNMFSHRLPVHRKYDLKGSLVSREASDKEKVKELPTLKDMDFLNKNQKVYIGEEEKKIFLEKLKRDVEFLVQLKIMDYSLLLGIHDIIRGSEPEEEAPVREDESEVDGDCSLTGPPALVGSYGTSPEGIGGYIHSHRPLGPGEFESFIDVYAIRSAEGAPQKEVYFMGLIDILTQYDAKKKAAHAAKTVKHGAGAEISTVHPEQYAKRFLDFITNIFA
From the text: as §1, §2

TAOK1 = molecular target: T4, TAOK1 (Homo sapiens, UniProt Q7L7X3); experiment: DiscoverX scanMAX binding assay; conditions: 1 μM
T4 construct: purchased Eurofins
T4 sequence (Q7L7X3 1-1001): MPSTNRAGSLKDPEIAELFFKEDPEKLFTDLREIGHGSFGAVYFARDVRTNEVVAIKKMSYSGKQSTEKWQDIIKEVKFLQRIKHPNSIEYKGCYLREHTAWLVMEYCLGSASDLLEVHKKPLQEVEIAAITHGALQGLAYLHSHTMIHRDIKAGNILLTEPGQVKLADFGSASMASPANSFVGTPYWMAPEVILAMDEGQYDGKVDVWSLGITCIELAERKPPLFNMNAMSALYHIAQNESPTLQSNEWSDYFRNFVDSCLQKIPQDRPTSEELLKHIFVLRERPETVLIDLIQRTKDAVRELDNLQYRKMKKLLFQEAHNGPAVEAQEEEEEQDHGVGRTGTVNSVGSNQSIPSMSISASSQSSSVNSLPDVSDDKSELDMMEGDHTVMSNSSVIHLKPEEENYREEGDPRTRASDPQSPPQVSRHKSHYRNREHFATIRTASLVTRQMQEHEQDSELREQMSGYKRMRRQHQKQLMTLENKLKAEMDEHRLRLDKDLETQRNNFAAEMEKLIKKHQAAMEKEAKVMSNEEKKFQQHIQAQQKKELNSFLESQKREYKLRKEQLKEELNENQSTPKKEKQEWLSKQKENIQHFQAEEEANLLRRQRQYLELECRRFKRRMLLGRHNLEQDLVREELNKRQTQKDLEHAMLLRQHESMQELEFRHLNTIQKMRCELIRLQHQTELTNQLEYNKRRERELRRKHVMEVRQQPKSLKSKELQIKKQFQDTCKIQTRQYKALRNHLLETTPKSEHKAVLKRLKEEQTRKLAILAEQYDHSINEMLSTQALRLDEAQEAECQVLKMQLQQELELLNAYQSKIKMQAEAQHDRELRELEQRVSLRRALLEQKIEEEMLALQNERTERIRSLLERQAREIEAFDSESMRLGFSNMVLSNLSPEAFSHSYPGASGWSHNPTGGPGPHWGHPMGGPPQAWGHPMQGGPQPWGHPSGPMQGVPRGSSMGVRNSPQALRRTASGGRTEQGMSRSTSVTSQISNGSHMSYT
From the text: as §1, §2

[1] = molecular target: 17-member enzymatic kinase assay panel; experiment: 17-member enzymatic kinase panel, number of kinases inhibited; assay type: biochemical; conditions: 1 μM; of 17 kinases
NLuc-TTBK1 = molecular target: T5, NLuc-TTBK1 (Homo sapiens, UniProt Q5TCY1); experiment: TTBK1 NanoBRET cellular target engagement assay in HEK293 cells; assay type: cell-based; conditions: 2 μM tracer 29
T5 construct: host or cells: HEK293
Protocol: HEK293 cells were transfected with constructs of TTBK1 or TTBK2 tagged with NLuc on the N- or C-terminus as previously described[43] Constructs for NanoBRET measurements of TTBK1 (NLuc-TTBK1 and TTBK1-NLuc) and TTBK2 (NLuc-TTBK2 and TTBK2-NLuc) were kindly provided by Promega. NLuc orientations used in the respective assays are indicated. Cells were plated in 96-well tissue culture treated plates (Corning 3917) at a cell density of 2 × 10^5 cells/mL, with a total volume of 100 μL per well in DMEM. […] NanoBRET plates were read after addition of 50 μL of a stock solution (3X) containing NanoBRET NanoGlo substrate (Promega N2161), extracellular NanoLuc inhibitor (Promega N2161) and Opti-MEM. For a 96-well plate the 3X stock solution was prepared with 30 μL of NanoBRET NanoGlo substrate, 10 μL of extracellular NanoLuc inhibitor, and 4960 μL of Opti-MEM without phenol red. […] HEK293 cells were transfected with NLuc-TTBK1 or NLuc-TTBK2. […] One biological replicate was plotted in GraphPad Prism with log[inhibitor] vs. response (three parameters) and included in Fig. 3C. NanoBRET assays were carried out in dose-response format as described previously. NLuc orientations used in the respective assays are as follows: NLuc-TTBK1, NLuc-TTBK2, and PIP4K2C-NLuc (for PI5[…]γ). […] Data are reported as IC50 ± standard error mean (SEM). For PI5[…]γ, 9 was tested in 12-point dose-response format with a top concentration of 10 μM (data in Table S2). One biological replicate was plotted in GraphPad Prism with log[inhibitor] vs. response (three parameters).

[2] = ATP at Km, dose–response 9-pt curve
[3] = intact HEK293 cells, read-out: TTBK1 intact cell NB IC50
[4] = permeabilized HEK293 cells (digitonin), read-out: TTBK1 permeabilized cell NB IC50

T2 sequence (O14578 whole entry): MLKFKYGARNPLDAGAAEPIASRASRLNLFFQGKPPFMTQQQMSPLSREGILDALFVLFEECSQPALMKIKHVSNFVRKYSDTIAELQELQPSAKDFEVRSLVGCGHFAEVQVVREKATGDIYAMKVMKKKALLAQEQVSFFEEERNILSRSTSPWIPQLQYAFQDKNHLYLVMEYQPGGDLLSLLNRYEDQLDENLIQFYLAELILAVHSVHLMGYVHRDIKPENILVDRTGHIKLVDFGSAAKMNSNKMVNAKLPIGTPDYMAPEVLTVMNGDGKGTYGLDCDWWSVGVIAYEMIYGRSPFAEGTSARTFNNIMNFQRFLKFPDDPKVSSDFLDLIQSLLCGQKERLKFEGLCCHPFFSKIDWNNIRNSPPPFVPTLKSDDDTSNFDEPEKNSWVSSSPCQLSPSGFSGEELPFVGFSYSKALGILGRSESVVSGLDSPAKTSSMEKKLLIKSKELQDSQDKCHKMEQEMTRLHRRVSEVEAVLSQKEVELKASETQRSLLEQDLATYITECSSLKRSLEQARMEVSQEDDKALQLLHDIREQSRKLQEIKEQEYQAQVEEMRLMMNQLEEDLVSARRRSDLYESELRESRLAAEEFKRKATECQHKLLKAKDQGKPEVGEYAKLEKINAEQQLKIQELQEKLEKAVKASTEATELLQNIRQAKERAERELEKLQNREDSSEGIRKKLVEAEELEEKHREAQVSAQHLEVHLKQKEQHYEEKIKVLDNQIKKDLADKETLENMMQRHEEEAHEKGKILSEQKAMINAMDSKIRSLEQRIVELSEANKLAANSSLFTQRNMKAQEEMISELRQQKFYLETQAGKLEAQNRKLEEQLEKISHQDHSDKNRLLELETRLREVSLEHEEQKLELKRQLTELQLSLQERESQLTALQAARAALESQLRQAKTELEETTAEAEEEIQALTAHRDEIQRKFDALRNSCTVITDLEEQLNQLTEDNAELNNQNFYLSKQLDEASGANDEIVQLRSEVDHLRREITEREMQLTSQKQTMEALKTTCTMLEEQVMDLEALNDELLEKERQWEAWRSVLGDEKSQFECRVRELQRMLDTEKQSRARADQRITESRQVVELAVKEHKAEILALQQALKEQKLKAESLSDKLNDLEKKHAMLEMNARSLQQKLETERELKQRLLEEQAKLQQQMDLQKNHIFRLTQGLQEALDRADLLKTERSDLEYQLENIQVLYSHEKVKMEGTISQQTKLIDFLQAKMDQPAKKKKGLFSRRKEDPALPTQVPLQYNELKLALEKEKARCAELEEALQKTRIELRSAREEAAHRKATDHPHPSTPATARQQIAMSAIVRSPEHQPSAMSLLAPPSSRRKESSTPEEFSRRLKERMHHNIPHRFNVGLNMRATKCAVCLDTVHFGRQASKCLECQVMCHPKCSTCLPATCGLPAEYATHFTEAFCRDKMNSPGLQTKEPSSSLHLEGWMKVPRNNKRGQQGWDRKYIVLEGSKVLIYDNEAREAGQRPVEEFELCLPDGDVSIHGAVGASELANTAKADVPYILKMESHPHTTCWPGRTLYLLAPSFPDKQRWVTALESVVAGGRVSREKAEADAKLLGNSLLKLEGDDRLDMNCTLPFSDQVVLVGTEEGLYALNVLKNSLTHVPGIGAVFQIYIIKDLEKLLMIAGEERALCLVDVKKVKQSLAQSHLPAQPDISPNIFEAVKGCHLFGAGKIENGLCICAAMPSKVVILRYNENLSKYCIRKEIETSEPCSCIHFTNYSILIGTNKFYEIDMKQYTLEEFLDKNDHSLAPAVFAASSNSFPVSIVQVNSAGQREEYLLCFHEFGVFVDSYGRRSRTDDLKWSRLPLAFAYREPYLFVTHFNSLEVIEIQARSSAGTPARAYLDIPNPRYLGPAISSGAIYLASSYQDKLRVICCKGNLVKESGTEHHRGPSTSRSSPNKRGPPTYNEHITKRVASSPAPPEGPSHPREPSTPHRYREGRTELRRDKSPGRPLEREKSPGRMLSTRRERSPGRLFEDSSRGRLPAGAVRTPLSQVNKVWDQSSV
T1 sequence (Q6IQ55 whole entry): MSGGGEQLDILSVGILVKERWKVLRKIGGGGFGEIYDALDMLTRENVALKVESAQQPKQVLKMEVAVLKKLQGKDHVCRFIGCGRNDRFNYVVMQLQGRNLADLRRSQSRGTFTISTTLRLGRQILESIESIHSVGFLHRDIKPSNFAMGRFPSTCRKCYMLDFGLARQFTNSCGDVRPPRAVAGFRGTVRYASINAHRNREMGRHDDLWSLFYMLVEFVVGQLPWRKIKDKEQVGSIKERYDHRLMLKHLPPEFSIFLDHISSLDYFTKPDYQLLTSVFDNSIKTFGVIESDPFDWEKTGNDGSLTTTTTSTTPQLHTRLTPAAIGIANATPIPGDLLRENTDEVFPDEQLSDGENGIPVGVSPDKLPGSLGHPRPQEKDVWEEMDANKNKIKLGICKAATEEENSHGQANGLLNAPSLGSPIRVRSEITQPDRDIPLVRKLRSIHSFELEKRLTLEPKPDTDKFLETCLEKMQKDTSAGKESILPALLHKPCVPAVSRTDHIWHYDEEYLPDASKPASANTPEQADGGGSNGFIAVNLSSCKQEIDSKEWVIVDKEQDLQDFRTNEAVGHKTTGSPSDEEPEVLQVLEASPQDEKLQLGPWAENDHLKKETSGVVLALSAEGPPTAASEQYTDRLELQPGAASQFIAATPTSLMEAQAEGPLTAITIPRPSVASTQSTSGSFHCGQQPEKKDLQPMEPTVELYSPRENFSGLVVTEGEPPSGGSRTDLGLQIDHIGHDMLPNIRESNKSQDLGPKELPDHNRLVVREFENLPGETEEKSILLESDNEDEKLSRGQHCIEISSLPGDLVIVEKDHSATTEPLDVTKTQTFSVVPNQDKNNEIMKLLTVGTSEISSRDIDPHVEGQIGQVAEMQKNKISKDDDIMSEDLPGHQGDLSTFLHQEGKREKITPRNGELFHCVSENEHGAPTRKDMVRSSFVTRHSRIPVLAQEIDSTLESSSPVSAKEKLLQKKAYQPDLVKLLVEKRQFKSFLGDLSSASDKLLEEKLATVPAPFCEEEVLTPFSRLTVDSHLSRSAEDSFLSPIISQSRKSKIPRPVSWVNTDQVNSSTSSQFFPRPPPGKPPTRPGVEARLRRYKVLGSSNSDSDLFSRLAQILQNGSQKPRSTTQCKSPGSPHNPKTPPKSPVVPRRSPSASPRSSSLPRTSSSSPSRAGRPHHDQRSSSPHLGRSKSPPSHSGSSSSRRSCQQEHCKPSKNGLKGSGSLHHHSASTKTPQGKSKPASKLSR
T5 sequence (Q5TCY1 whole entry): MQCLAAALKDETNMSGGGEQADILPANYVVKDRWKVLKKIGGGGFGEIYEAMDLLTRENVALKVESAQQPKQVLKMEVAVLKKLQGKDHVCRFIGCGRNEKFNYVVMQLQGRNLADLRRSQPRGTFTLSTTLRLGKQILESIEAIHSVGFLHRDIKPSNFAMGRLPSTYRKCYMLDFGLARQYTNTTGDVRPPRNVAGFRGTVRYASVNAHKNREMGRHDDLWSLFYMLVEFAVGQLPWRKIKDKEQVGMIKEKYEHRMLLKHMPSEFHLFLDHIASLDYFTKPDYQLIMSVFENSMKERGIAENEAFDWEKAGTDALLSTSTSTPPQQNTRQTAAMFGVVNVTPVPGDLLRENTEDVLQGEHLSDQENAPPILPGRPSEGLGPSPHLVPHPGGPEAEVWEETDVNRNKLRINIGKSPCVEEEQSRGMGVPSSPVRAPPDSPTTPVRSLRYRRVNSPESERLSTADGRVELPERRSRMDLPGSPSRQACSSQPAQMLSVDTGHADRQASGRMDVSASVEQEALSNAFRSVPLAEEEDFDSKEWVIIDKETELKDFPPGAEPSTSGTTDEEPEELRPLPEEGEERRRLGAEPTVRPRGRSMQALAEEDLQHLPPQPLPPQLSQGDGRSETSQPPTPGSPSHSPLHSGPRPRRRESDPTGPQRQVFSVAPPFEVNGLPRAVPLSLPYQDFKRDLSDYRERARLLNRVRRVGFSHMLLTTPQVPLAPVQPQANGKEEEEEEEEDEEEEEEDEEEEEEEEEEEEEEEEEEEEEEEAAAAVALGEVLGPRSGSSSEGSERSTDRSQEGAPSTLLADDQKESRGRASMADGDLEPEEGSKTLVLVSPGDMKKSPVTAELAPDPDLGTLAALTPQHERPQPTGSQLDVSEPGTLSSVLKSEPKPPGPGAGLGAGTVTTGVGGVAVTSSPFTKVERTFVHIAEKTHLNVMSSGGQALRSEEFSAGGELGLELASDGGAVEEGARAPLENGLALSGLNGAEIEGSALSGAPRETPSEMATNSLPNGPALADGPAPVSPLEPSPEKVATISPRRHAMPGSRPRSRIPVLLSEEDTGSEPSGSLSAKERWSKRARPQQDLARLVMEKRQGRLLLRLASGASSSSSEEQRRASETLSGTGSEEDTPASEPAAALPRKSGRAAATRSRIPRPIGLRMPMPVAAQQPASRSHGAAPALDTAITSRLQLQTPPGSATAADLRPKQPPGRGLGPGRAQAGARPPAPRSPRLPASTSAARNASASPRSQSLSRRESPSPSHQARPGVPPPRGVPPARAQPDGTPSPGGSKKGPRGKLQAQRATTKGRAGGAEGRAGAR

## CC(C)(O)C#Cc1ccc2[nH]c3c(c2c1)-c1nc(N)ncc1CCC3 [AMG28, reference compound]
TTBK2; ATP at Km
  TTBK2 PoC: 20 PoC
CIT
  CIT (CRIK) % control at 1000nM / DiscoverX PoC value: 1.3 % control
PIP5K2C
  PIP5K2C (PI5P4Kγ) % control at 1000nM / DiscoverX PoC value: 3.1 % control
TAOK1
  TAOK1 % control at 1000nM / DiscoverX PoC value: 3.2 % control

## CC(C)(O)C#Cc1ccc2[nH]c3c(c2c1)-c1nc(N)ncc1CC3 [Compound 1]
TTBK2
  pIC50: < 6.00
TTBK2; ATP at Km
  TTBK2 PoC: 43 PoC
TTBK2; [2]
  pIC50: 5.92
[1]
  # kinases < 10 PoC in enzyme panel: 2
NLuc-TTBK1; [3]
  pIC50: < 4.52
NLuc-TTBK1; [4]
  pIC50: 5.60
CIT
  CIT (CRIK) % control at 1000nM / DiscoverX PoC value: 0 % control
PIP5K2C
  PIP5K2C (PI5P4Kγ) % control at 1000nM / DiscoverX PoC value: 0 % control
TAOK1
  TAOK1 % control at 1000nM / DiscoverX PoC value: 1.2 % control

## CC(C)(O)C#Cc1ccc2[nH]c3c(c2c1)-c1nc(N)ncc1CCCC3 [Compound 2]
TTBK2; ATP at Km
  TTBK2 PoC: 69 PoC and 69/NT PoC
[1]
  # kinases < 10 PoC in enzyme panel: 1
NLuc-TTBK1; [3]
  pIC50: < 4.52
NLuc-TTBK1; [4]
  pIC50: 4.72

## CC(C)(O)C#Cc1ccc2[nH]cc(-c3ccnc(N)n3)c2c1 [Compound 3]
TTBK2; ATP at Km
  TTBK2 PoC: 24 PoC
TTBK2; [2]
  pIC50: 6.42
[1]
  # kinases < 10 PoC in enzyme panel: 3
CIT
  CIT (CRIK) % control at 1000nM / DiscoverX PoC value: 0 % control
PIP5K2C
  PIP5K2C (PI5P4Kγ) % control at 1000nM / DiscoverX PoC value: 0.2 % control
TAOK1
  TAOK1 % control at 1000nM / DiscoverX PoC value: 2.1 % control

## COC(C)(C)C#Cc1ccc2[nH]c3c(c2c1)-c1nc(N)ncc1CCC3 [Compound 11]
TTBK2; ATP at Km
  TTBK2 PoC: 110 PoC and 110/NT PoC
[1]
  # kinases < 10 PoC in enzyme panel: 1
NLuc-TTBK1; [3]
  pIC50: < 4.52
NLuc-TTBK1; [4]
  pIC50: < 4.52
